Reference: PMC3203607 (Nucleic Acids Research, 2011)

Columns and labels:
Type in all cases: binding
Ascaris eIF4E-3 (49–236) = target: T1, Ascaris eIF4E-3 (49–236) (Ascaris suum, UniProt Q6PKX2); assay: isothermal titration calorimetry
T1 sequence (Q6PKX2 49-236): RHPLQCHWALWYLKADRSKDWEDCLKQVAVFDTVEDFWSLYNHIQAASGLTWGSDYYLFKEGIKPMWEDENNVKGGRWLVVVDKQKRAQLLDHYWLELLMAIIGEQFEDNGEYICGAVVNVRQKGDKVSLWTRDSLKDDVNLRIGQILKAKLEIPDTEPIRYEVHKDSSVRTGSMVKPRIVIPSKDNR

Ascaris eIF4E-3 [1] = target: T2, Ascaris eIF4E-3 (Ascaris suum, UniProt Q6PKX2); assay: fluorescence titration; settings: read-out: KD (μM) / Ascaris eIF4E-3; 50 mM HEPES/KOH pH 7.20, 200 mM KCl, 1 mM DTT, 0.5 mM EDTA, 20 °C
T2 sequence (Q6PKX2 1-236): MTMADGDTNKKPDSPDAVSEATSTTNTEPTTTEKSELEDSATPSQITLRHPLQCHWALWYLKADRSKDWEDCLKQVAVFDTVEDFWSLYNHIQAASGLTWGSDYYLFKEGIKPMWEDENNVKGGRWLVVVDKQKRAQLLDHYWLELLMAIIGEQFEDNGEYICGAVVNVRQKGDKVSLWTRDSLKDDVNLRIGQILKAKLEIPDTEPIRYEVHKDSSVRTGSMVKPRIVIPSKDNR

Ascaris eIF4E-3 [2] = target: T2, Ascaris eIF4E-3; assay: isothermal titration calorimetry; settings: 20 mM HEPES pH 7.4, 1 mM EDTA, 100 mM KCl, 20 °C; single-site model
Ascaris eIF4E-3 [3] = target: T3, Ascaris eIF4E-3 (Ascaris suum, UniProt Q6PKX2, E116D); assay: isothermal titration calorimetry; settings: 20 mM HEPES pH 7.4, 1 mM EDTA, 100 mM KCl, 20 °C
T3 sequence (Q6PKX2 1-236 E116D): T2 sequence (Q6PKX2 1-236)

Human eIF4E = Human eIF4E (Homo sapiens, UniProt P06730); assay: isothermal titration calorimetry
Human eIF4E (28–217) = Human eIF4E (28–217) (Homo sapiens, UniProt P06730); assay: fluorescence titration
Sequence of Human eIF4E (28–217) (P06730 28-217): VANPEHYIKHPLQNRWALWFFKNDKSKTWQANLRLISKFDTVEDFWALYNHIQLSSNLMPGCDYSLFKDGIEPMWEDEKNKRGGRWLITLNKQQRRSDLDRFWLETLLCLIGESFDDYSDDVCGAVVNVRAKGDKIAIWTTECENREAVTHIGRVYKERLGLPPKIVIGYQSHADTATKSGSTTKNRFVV

Sequence of Human eIF4E (P06730 whole entry): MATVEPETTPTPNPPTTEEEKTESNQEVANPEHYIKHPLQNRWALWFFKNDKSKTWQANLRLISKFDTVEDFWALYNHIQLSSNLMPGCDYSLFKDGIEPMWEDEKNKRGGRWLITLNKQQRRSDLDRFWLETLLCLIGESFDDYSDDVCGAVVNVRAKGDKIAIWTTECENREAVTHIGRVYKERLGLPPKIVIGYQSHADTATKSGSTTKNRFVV

| SMILES | Kd (Ascaris eIF4E-3 [1]) [µM] | Kd (Human eIF4E (28–217)) [µM] | Kd (Ascaris eIF4E-3 (49–236)) [µM] | Kd (Ascaris eIF4E-3 [2]) [µM] | Kd (Ascaris eIF4E-3 [3]) [µM] | Kd (Human eIF4E) [µM] |
| --- | --- | --- | --- | --- | --- | --- |
| CN(C)c1nc2c(c(=O)[nH]1)[n+](C)cn2[C@@H]1O[C@H](COP(=O)(O)OP(=O)(O)OP(=O)(O)O)[C@@H](O)[C@H]1O [m^2,2,7GTP] |  |  | 12.2 ± 3.9 | 8.4 ± 1 | 7 ± 0.1 | 4.56 ± 2.1 |
| Nc1nc2c(ncn2[C@@H]2O[C@H](COP(=O)(O)OP(=O)(O)OP(=O)(O)O)[C@@H](O)[C@H]2O)c(=O)[nH]1 [GTP] | 83 ± 14 |  |  |  |  |  |
| C[n+]1cn([C@@H]2O[C@H](COP(=O)(O)OP(=O)(O)OP(=O)(O)O)[C@@H](O)[C@H]2O)c2nc(N)[nH]c(=O)c21 [m^7GTP] |  |  | 0.17 ± 0.05 | 0.24 ± 0.04 | 1.98 ± 0.2 |  |

Second part, led by results:

| Kd (Ascaris eIF4E-3 [1]) [µM] | Kd (Human eIF4E (28–217)) [µM] | SMILES | Kd (Ascaris eIF4E-3 (49–236)) [µM] | Kd (Ascaris eIF4E-3 [2]) [µM] | Kd (Ascaris eIF4E-3 [3]) [µM] | Kd (Human eIF4E) [µM] |
| --- | --- | --- | --- | --- | --- | --- |
| 0.787 ± 0.025 |  | C[n+]1cn([C@@H]2O[C@H](COP(=O)(O)OP(=O)(O)OP(=O)(O)OC[C@H]3O[C@@H](n4cnc5c(=O)[nH]c(N)nc54)[C@H](O)[C@@H]3O)[C@@H](O)[C@H]2O)c2nc(N)[nH]c(=O)c21 [m^7GpppG] | 0.75 ± 0.19 |  |  |  |
|  | 3.1 ± 1.1 | CN(C)c1nc2c(c(=O)[nH]1)[n+](C)cn2[C@@H]1O[C@H](COP(=O)(O)OP(=O)(O)OP(=O)(O)OC[C@H]2O[C@@H](n3cnc4c(=O)[nH]c(N)nc43)[C@H](O)[C@@H]2O)[C@@H](O)[C@H]1O [m^2,2,7GpppG] |  |  |  |  |
